The values that follow come from ChEMBL document CHEMBL1141936, “Structural basis for the GSK-3beta binding affinity and selectivity against CDK-2 of 1-(4-aminofurazan-3yl)-5-dialkylaminomethyl-1H-[1,2,3] triazole-4-carboxylic acid derivatives” (Bioorg Med Chem Lett, 2005).

The target in test [1] is Glycogen synthase kinase-3 beta (Homo sapiens, UniProt P49841). Kind of test: Inhibitory activity against GSK3-beta.
Test [2] has as its target Cyclin-dependent kinase 2 (Homo sapiens, UniProt P24941). The test can be described thus: Inhibitory activity against CDK2.

Sequence of Glycogen synthase kinase-3 beta (P49841 whole entry): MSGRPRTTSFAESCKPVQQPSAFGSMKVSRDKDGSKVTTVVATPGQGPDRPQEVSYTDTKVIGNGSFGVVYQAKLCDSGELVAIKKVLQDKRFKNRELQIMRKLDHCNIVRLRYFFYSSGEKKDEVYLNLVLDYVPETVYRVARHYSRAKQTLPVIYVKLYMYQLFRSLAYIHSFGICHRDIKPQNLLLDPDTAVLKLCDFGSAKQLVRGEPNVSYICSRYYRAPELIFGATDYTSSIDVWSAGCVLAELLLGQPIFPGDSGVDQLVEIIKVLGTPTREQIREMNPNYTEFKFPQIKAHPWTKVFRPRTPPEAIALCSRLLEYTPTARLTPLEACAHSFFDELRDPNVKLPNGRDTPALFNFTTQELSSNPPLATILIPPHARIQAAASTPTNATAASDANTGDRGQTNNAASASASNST

The IC50 is the concentration at which inhibition is half-maximal. As for `NC1=NONC1N1N=NC(c2nnc(-c3ccncc3)[nH]2)C1CN1CCCCC1` (centres undefined), the IC50 in test [1] was 0.28 µM; in test [2], > 250 µM.

As to `NC1=NONC1N1N=NC(C(=O)N/N=C/c2ccncc2)C1CN1CCCCC1` (centres undefined), the IC50 is 0.1 µM in test [1] and 96 µM in test [2].
